Measured values taken from patent publication US20050256134A1, “Use of creatine analogues and creatine kinase modulators for the prevention and treatment of glucose metabolic disorders” (AVICENA GROUP, INC., priority 1995, published 2005).
Like-named read-outs stand apart in the source and are kept apart here.

Key:
rats = details: intravenous; cited from earlier work
[1] = test system: female Fisher 344 rats bearing rat mammary adenocarcinoma 13762; test: Effect of creatine compounds on glucose levels in rats bearing tumors (i.v., days 4-8 and 14-18); assay type: in vivo; details: for Glucose Levels: i.v. days 4-8 and 14-18
Method: Two creatine compounds, creatine phosphate and cyclocreatine, were injected intravenously into tumor bearing rats, and the level of glucose in the rats was monitored. Beta guanidino propionic acid, also was administered. […] There was no specific reason for using tumor bearing rats, except convenience because the antitumor activity of these compounds also was being studied. The presence of the tumors should not have any effect on the ability of these compounds to regulate glucose levels. The rats carrying the tumors were described by us previously (see, […] et al., Cancer Chemother. Pharmacol, 35: 411-416, 1995). The schedule and dose selected in these experiments was based on prior experience working with this class of compounds as anticancer or antiviral chemotherapeutic agents. The rat mammary adenocarcinoma 13762 was implanted in the female Fisher 344 rats on day zero. The creatine compounds were administered intravenously on days 4-8 and days 14-18. The amounts used were 1 gm/kg of cyclocreatine, 0.93 gm/kg for beta guanidino propionic acid, and 2.32 gm/kg for creatine phosphate. […] Plasma glucose levels were measured at around 11 a.m., by taking a drop of blood from the animals and testing glucose levels using a commercial kit ([…] bG, Boehringer Mannheim). For animals that were treated with drugs, the treatment was around 9 a.m., and bleeding was also at around 11 a.m. To examine more closely what occurred in the above two experiments, the average readings of glucose levels from experiments one and two were taken in the following time intervals post drug treatment: Days 2-3, Days 4-8, Days 8-12, Days 14-18, Day 15 and Days 19-22.

[2] = test system: normal animals and a model for non-insulin dependent diabetes mellitus; details: cited from earlier work
[3] = in vivo; cited from earlier work

Row | Compound | Glucose Levels (rats) | insulin release (rats) | Glucose Levels ([1]; Example 1) | Glucose Levels ([1]; Example 2 (repeat)) | effects on glucose level ([1]; average of experiments one and two) [%] | Glucose Levels ([2]; large amounts for several weeks) | Glucose Levels ([2]; model for non-insulin dependent diabetes mellitus) | Glucose Levels ([2]; normal animals) | hypoglycemic effect [3] | undesirable side effects [3]
1 | N=C(N)NCCC[C@H](N)C(=O)O [Arginine] | did not affect glucose levels | stimulated insulin release | – | – | – | – | – | – | – | –
2 | N=C(N)NCCC(=O)O [beta guanidino propionic acid] | did not affect glucose levels | stimulated insulin release | Minimal changes in glucose levels | minimal effect | < 15 | not to affect glucose levels | had an effect on glucose levels | not to affect glucose levels | – | –
3 | Augmentin | – | – | – | – | – | – | – | – | produced hypoglycemia | hypertension and circulatory collapse
